Measurements taken from patent US20140155415A1, “BENZ[…] BENZODIOXINE COMPOUNDS THAT INTERACT WITH G[…] FOR THE TREATMENT OF DIABETES” (priority 2011, published 2014).
Like-named read-outs stand apart in the source and are kept apart here.

How the values were obtained:
[1] = biological target: T1, GK-GKRP (glucokinase / glucokinase regulatory protein) (Homo sapiens, UniProt Q14397); test: GKRP LC MS/MS Biochemical Assay (LCMS/MS); settings: formation of 13C-glucose-6-phosphate from 13C-glucose by LC MS/MS, human His-hepatic GK, fructose-6-phosphate
T1 sequence (Q14397 1-625): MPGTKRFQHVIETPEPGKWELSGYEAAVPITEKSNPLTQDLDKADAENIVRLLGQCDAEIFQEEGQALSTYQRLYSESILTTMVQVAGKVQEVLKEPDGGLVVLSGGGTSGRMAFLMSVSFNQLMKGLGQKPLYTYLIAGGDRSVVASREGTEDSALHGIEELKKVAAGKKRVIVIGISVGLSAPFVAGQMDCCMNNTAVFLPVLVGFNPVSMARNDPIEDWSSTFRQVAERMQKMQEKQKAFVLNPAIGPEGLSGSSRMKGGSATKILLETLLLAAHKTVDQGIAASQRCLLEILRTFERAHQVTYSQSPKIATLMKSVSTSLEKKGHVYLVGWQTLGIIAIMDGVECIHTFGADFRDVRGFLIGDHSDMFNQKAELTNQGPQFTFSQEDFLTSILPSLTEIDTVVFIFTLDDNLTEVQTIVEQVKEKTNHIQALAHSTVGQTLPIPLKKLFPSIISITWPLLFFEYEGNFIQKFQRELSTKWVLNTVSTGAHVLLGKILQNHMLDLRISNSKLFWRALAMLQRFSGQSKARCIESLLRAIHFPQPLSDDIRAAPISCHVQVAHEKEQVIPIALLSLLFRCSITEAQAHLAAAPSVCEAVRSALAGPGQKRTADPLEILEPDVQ
Procedure: GKRP LC MS/MS Biochemical Assay (LCMS/MS)
This assay is used to directly measure the formation of ^13C-glucose-6-phosphate from ^13C-glucose by LC MS/MS. Begin by preparing the following solutions: Compound Buffer (CB): 50 mM Tris, pH 7.5/4 mM MgCl2/6% DMSO/fresh 10 mM DTT from 1M frozen stock. Enzyme Buffer (EB): 50 mM Tris, pH 7.5/4 mM MgCl2/6% DMSO/fresh 0.1% BSA/fresh 0.01% Brij-35 (10% BSA and 1% Brij-35 stock). GK (Glucokinase) Working Stock (5×): Dilute human His-hepatic GK to 30 nM in EB buffer. […] Seal the plate and incubate for 30 minutes at room temperature while mixing. After 30 minutes add 10 μl of GK Working Stock (5×). Re-seal the plate and incubate for another 30 minutes at room temperature while mixing. After the second 30 minutes, stop the reaction by the addition of 50 μl of 100% acetonitrile, seal, and mix for 5-10 minutes. Run 10 μl of this sample through the LC MS/MS (API 3200, Applied Biosystems, Carlsbad, Calif.). […]
(§1) In the Examples, the assays are referred to as “LCMS/MS” or “Binding.”

[2] = biological target: T2, GK-GKRP (interaction between glucokinase and glucokinase regulatory protein) (Homo sapiens, UniProt Q14397); test: GK-GKRP Binding Assay (Binding), AlphaScreen
T2 construct: made in house; host or cells: GKRP: baculovirus system
T2 sequence (Q14397 1-625): T1 sequence (Q14397 1-625)
Procedure: GK-GKRP Binding Assay Protocol (Binding)
This assay is used to directly measure the interaction between glucokinase (GK) and glucokinase regulatory protein (GKRP). Begin by preparing the following solutions. Assay Buffer: 20 mM Tris, pH 7.5/0.05% BSA/1 mM DTT/1 μM sorbitol-6-phosphate. […] Combine the following reagents in a white 96-well half area plate. Pipette 14 μl of the diluted avi-tagged GKRP into each well. Add 1 μl of compound to be tested and incubate at room temperature for 20 minutes. After 20 minutes, add 5 μl of assay buffer containing 6 nM GK-fluorescein. […] Incubate in a dark room for 2 hours at room temperature. After 2 hours read the plate using an Envision plate reader (Perkin Elmer, Waltham Mass.).
Recombinant human glucokinase (hepatic) was purified and formulated in 50 mM Tris (pH 7.5), 150 mM NaCl and 20 mM glucose previous to labeling with fluorescein. […] Unreacted dye was removed by extensive dialysis into the final formulation buffer: 25 mM Tris (pH 7.2), 150 mM NaCl, 10% glycerol and 2 mM DTT. The human glucokinase regulatory protein construct was designed with a C-terminal avitag and was expressed in a baculovirus system. Purified GKRP was incubated overnight with recombinant biotin ligase in the presence of D-biotin, ATP and MgCl2. GKRP was isolated from reaction components by chromatography on a Superdex 200 size exclusion column into: 50 mM HEPES, 150 mM NaCl and 5 mM DTT. […] Proteins were quantitated according to their calculated molar extinction coefficients at A280 and were stored at −80° C.
as §1

[3] = avi-tagged GKRP, GK-fluorescein, AlphaScreen beads, 1 μM sorbitol-6-phosphate, read-out: GK-GKRP IC50 (Binding)

Row | IC50 [2, 3] [nM] | SMILES | also measured
1 | – | Cc1ccccc1C(NS(=O)(=O)c1ccc2c(c1)OCCCO2)c1cc2ccccc2o1 (racemic) [Example 2, N-(1-benzofuran-2-yl(2-methylphenyl)methyl)-3,4-dihydro-2H-1,5-benzodioxepine-7-sulfonamide] | EC50 [1]: 110 nM
2 | – | O=S(=O)(NC(c1cc2ccccc2o1)c1ccccc1CCO)c1ccc2c(c1)OCCCO2 (racemic) [Example 16, N-(1-benzofuran-2-yl(2-(2-hydroxyethyl)phenyl)methyl)-3,4-dihydro-2H-1,5-benzodioxepine-7-sulfonamide] | EC50 [1]: 3200 nM
3 | – | O=S(=O)(NC(c1cccc(F)c1)c1cc2ccccc2o1)c1ccc2c(c1)OCCCO2 (racemic) [Example 24, N-(1-benzofuran-2-yl(3-fluorophenyl)methyl)-3,4-dihydro-2H-1,5-benzodioxepine-7-sulfonamide] | EC50 [1]: 1800 nM
4 | – | O=S(=O)(NC(c1cc2ccccc2o1)c1cccnc1Cl)c1ccc2c(c1)OCCCO2 (racemic) [Example 27, N-(1-benzofuran-2-yl(2-chloro-3-pyridinyl)methyl)-3,4-dihydro-2H-1,5-benzodioxepine-7-sulfonamide] | EC50 [1]: 1200 nM
5 | – | O=S(=O)(NC(c1cc2ccccc2o1)c1ccncc1Cl)c1ccc2c(c1)OCCCO2 (racemic) [Example 28, N-(1-benzofuran-2-yl(3-chloro-4-pyridinyl)methyl)-3,4-dihydro-2H-1,5-benzodioxepine-7-sulfonamide] | EC50 [1]: 1600 nM
6 | 1500 | COc1cccnc1C(NS(=O)(=O)c1ccc2c(c1)OCCCO2)c1nc2cccnc2s1 (racemic) [Example 69, N-((3-methoxy-2-pyridinyl)([1,3]thiazolo[5,4-b]pyridin-2-yl)methyl)-3,4-dihydro-2H-1,5-benzodioxepine-7-sulfonamide] | –
7 | – | COc1ccc(S(=O)(=O)NC(c2cc3ccccc3s2)c2ccccc2SC)cc1OC (racemic) [Example 74] | IC50 [2]: 2700 nM
8 | – | O=S(=O)(N[C@@H](c1cc2ccccc2s1)c1ccccc1Cl)c1ccc2c(c1)OCC(O)CO2 (mixture of isomers) [Example 77, N—((R)-1-Benzothiophen-2-yl(2-chlorophenyl)methyl)-3-hydroxy-3,4-dihydro-2H-1,5-benzodioxepine-7-sulfonamide] | IC50 [2]: 97 nM
9 | 47 | O=S(=O)(N[C@@H](c1cc2ccccc2s1)c1ccccc1Cl)c1ccc2c(c1)OCC(F)CO2 (mixture of isomers) [Example 78, N—((R)-1-Benzothiophen-2-yl(2-chlorophenyl)methyl)-3-fluoro-3,4-dihydro-2H-1,5-benzodioxepine-7-sulfonamide] | –
10 | 98 | Nc1cccc(C(NS(=O)(=O)c2ccc3c(c2)OCCCO3)c2cc3ccccc3o2)n1 (racemic) [Example 79, N-((6-amino-2-pyridinyl)(1-benzofuran-2-yl)methyl)-3,4-dihydro-2H-1,5-benzodioxepine-7-sulfonamide] | –
11 | 1100 | O=S(=O)(NC(c1ccccc1)c1cc2ccnc(Cl)c2s1)c1ccc2c(c1)OCCCO2 (racemic) [Example 80, N-((7-Chlorothieno[2,3-c]pyridin-2-yl)(phenyl)methyl)-3,4-dihydro-2H-1,5-benzodioxepine-7-sulfonamide] | –
12 | > 33000 | Cc1cccnc1[C@H](NS(=O)(=O)c1ccc2c(c1)OCCCO2)c1cc2ccccc2o1 (single isomer, unassigned) [Example 26 Peak #1] | –
13 | 900 | CSc1ccccc1[C@H](NS(=O)(=O)c1ccc2c(c1)OCCCO2)c1nc2cccnc2s1 (single isomer, unassigned) [Example 65 Peak #1] | –
14 | 2800 | COc1ccccc1[C@H](NS(=O)(=O)c1ccc2c(c1)OCCCO2)c1nc2cccnc2s1 (single isomer, unassigned) [Example 67 Peak #1] | –
15 | 2000 | O=S(=O)(N[C@H](c1nc2cccnc2s1)c1ccccc1Cl)c1ccc2c(c1)OCCCO2 (single isomer, unassigned) [Example 68 Peak #1] | –
16 | 790 | O=S(=O)(N[C@@H](c1ccccc1)c1cc2cccc(-c3ccccn3)c2s1)c1ccc2c(c1)OCCCO2 (single isomer, unassigned) [Example 71 Peak #1] | –
17 | 620 | O=S(=O)(N[C@@H](c1cc2ccccc2s1)c1ccccc1Cl)c1ccc2c(c1)OCC(F)(F)CO2 [Example 76, N—((R)-1-Benzothiophen-2-yl(2-chlorophenyl)methyl)-3,3-difluoro-3,4-dihydro-2H-1,5-benzodioxepine-7-sulfonamide] | –
18 | 87 | O=S(=O)(N[C@@H](c1cc2cccc(-c3cc(C(O)(C(F)(F)F)C(F)(F)F)ccn3)c2s1)c1ccccc1Cl)c1ccc2c(c1)OCCCO2 [Example 81, N—((R)-(2-Chlorophenyl)(7-(4-(2,2,2-trifluoro-1-hydroxy-1-(trifluoromethyl)ethyl)-2-pyridinyl)-1-benzothiophen-2-yl)methyl)-3,4-dihydro-2H-1,5-benzodioxepine-7-sulfonamide] | –
19 | 907 | COc1ccc(S(=O)(=O)N[C@@H](c2cc3cccc(-c4cc(C(O)(C(F)(F)F)C(F)(F)F)ccn4)c3s2)c2ccccc2Cl)cc1OC [Example 82, N—((R)-(2-Chlorophenyl)(7-(4-(2,2,2-trifluoro-1-hydroxy-1-(trifluoromethyl)ethyl)-2-pyridinyl)-1-benzothiophen-2-yl)methyl)-3,4-dimethoxybenzenesulfonamide] | –
20 | 38 | C[C@@](O)(c1ccnc(-c2cccc3cc([C@H](NS(=O)(=O)c4ccc5c(c4)OCCCO5)c4ccccc4Cl)sc23)c1)C(F)(F)F [Example 83, N—((R)-(2-Chlorophenyl)(7-(4-((1R)-2,2,2-trifluoro-1-hydroxy-1-methylethyl)-2-pyridinyl)-1-benzothiophen-2-yl)methyl)-3,4-dihydro-2H-1,5-benzodioxepine-7-sulfonamide] | –
21 | 276 | COc1ccc(S(=O)(=O)N[C@@H](c2cc3cccc(-c4cc([C@@](C)(O)C(F)(F)F)ccn4)c3s2)c2ccccc2Cl)cc1OC [Example 84, N—((R)-(2-Chlorophenyl)(7-(4-((1R)-2,2,2-trifluoro-1-hydroxy-1-methylethyl)-2-pyridinyl)-1-benzothiophen-2-yl)methyl)-3,4-dimethoxybenzenesulfonamide] | –
22 | 23 | C[C@](O)(c1ccnc(-c2cccc3cc([C@H](NS(=O)(=O)c4ccc5c(c4)OCCCO5)c4ccccc4Cl)sc23)c1)C(F)(F)F [Example 85, N—((R)-(2-Chlorophenyl)(7-(4-((1S)-2,2,2-trifluoro-1-hydroxy-1-methylethyl)-2-pyridinyl)-1-benzothiophen-2-yl)methyl)-3,4-dihydro-2H-1,5-benzodioxepine-7-sulfonamide] | –
23 | 72 | COc1ccc(S(=O)(=O)N[C@@H](c2cc3cccc(-c4cc([C@](C)(O)C(F)(F)F)ccn4)c3s2)c2ccccc2Cl)cc1OC [Example 86, N—((R)-(2-Chlorophenyl)(7-(4-((1S)-2,2,2-trifluoro-1-hydroxy-1-methylethyl)-2-pyridinyl)-1-benzothiophen-2-yl)methyl)-3,4-dimethoxybenzenesulfonamide] | –
24 | 4880 | Nc1cc(C(NS(=O)(=O)c2ccc3c(c2)OCCCO3)c2cc3ccccc3o2)ccn1 (stereo not drawn) [Example 87, N-((2-Amino-4-pyridinyl)(1-benzofuran-2-yl)methyl)-3,4-dihydro-2H-1,5-benzodioxepine-7-sulfonamide] | –
